Data taken from paper PMC10247892 (Biomedicine & Pharmacotherapy, 2023).

Tests used:
[1] = system: wildtype SARS-CoV-2 virus (D614G variant); design: species or system golden Syrian hamsters; conditions: hamster, in vivo
SARS-CoV-2 D614G = assay: SARS-CoV-2 antiviral activity in a human nasal epithelial model; type: cell-based; conditions: HNE model
SARS-CoV-2 = SARS-CoV-2 replication on Calu-3 cells; type: cell-based; conditions: non-cytotoxic concentrations

Compound: Methyl-β-cyclodextrin [MβCD]
- Prophylactic effect (in words) [1]: less potent prophylactic effect
- Reduction of viral replication (SARS-CoV-2 D614G; 2.5 mM constantly in the basal side): 11%
- Reduction of viral replication (SARS-CoV-2 D614G; 2.5 mM on the apical side (initial addition), 48 h pi): 74%

Compound: OC[C@H]1O[C@@H]2O[C@H]3[C@H](O)[C@@H](O)[C@@H](O[C@H]4[C@H](O)[C@@H](O)[C@@H](O[C@H]5[C@H](O)[C@@H](O)[C@@H](O[C@H]6[C@H](O)[C@@H](O)[C@@H](O[C@H]7[C@H](O)[C@@H](O)[C@@H](O[C@H]8[C@H](O)[C@@H](O)[C@@H](O[C@H]1[C@H](O)[C@H]2O)O[C@@H]8CO)O[C@@H]7CO)O[C@@H]6CO)O[C@@H]5CO)O[C@@H]4CO)O[C@@H]3CO [β-CD, ß-Cyclodextrin]
- Inhibition of SARS-CoV-2 viral activity (in words) (SARS-CoV-2; D614G variant): inhibited the SARS-CoV-2 viral activity
- Inhibition of SARS-CoV-2 viral activity (in words) (SARS-CoV-2; Omicron BA.1 variant): inhibited the SARS-CoV-2 viral activity

Compound: CCC(CC)COC(=O)[C@H](C)N[P@](=O)(OC[C@H]1O[C@@](C#N)(c2ccc3c(N)ncnn23)[C@H](O)[C@@H]1O)Oc1ccccc1 [Remdesivir]
- Effect on viral replication (in words) (SARS-CoV-2 D614G; drug in the basal medium): completely blocked it
